Test system: normal human dermal fibroblasts (NHDF)
Assay: Gene expression in NHDF, full transcriptome analysis with Affymetrix U219 microarray
Format: cell-based
Settings: NHDF, 10 mg/ml, 24 h
Procedure: In the present study, the transcriptional effects (modulation of gene expression) of compounds 1, 2, 3 and 4 were evaluated on normal human dermal fibroblasts (NHDF) under basal conditions.
More specifically, the comparative analysis of the different transcriptomic profiles was performed using an Affymetrix GeneAtlas platform and the human “full transcriptome” U219 chip, which includes 36,000 transcripts and variants.
Fibroblasts were seeded in 24-well plates and cultured in culture medium for 24 hours. The medium was then replaced by assay medium and cells were incubated for further 24 hours. The medium was replaced by assay medium containing or not (control) the test compounds at different concentrations and the cells were preincubated for 24 hours. All experimental conditions were performed in triplicate. At the end of incubation, the culture supernatants were removed and the cells were washed in a phosphate buffered saline (PBS) solution and immediately frozen at −80° C.
Before RNA extraction, the replicates were pooled. Total RNA was extracted from each sample using TriPure Isolation Reagent® according to the supplier's instructions. The amount and quality of total RNA were evaluated for all samples using capillary electrophoresis (Bioanalyzer 2100, Agilent technologies). From each RNA, a labeled and amplified anti-sens RNA (aRNA) was obtained using GeneChip 3′IVT PLUS Kit (Affymetrix). For each labeled and amplified aRNA sample the profiles were evaluated before and after fragmentation using capillary electrophoresis (Bioanalyzer 2100, Agilent technologies). Hybridization of fragmented aRNA onto Affymetrix® U219 chip (36,000 transcripts and variants) was performed in the GeneAtlas™ fluidics Affymetrix® hybridization station for 20 hours at 45° C. U219 chip was analyzed using the GeneAtlas™ Imaging station (Affymetrix®—resolution 2 μm) to generate fluorescence intensity data.
Expression Console and Quality controls: data were normalized with the Expression Console (Affymetrix®) software using RMA algorithm. Then a quality control of the labeling and the hybridization was performed. Hybridization and labeling steps successfully passed the quality controls for these experiments.
Data reduction, Excel file description: once normalized with Expression Console, data were transferred into a Microsoft Excel® file in order to go further into data reduction.
Calculation and tools were added in order to rank and sort data, and finally to support data interpretation. Detection thresholds in terms of fold change were defined and applied on normalized data.
Results are considered and presented or commented per gene (and not probe). A probe set is a collection of probes designed to interrogate a given sequence of a gene. For data interpretation, the most important relative expression value obtained with one probe is considered to be representative of the corresponding gene. The file contains the following data: • Relative expression (RE) for each sample, • Fold change calculation, • Gene information.

[1] = relative expression adjusted to detection limit (<20)

## N[C@@H](CCCCNCC(F)(F)[C@]1(O)O[C@H](CO)[C@H](O)[C@H](O)[C@H]1O)C(=O)O [Compound 3]
Vs control, Affymetrix probe set 11752670_a_at
  Fold change, FADS1: 3.55
Vs control, Affymetrix probe set 11753248_a_at
  Fold change, TPP1: 2.05
Vs control, Affymetrix probe set 11753439_a_at
  Fold change, GBA///GBAP1: 2.35
Vs control, Affymetrix probe set 11753440_x_at
  Fold change, GBA: 2.30
Vs control, Affymetrix probe set 11754819_x_at
  Fold change, GBA///GBAP1: 2.08
Vs control, Affymetrix probe set 11755123_x_at
  Fold change, LPCAT3: 2.13
Vs control, Affymetrix probe set 11755251_x_at
  Fold change, FADS1: 3.75
Vs control, Affymetrix probe set 11757008_a_at
  Fold change, LPCAT3: 2.39
Vs control, Affymetrix probe set 11757469_s_at
  Fold change, TPP1: 2.14
Vs control, Affymetrix probe set 11757575_x_at
  Fold change, HSD17B14: 2.92
Vs control, Affymetrix probe set 11762755_x_at
  Fold change, TM7SF2: 2.10
[1]
  REadj2, ACOT1///ACOT2: 462.96
  REadj2, APOD: 154.78
  REadj2, DHCR7: 1097.58
  REadj2, FADS2: 263.98
  REadj2, GBAP1: 186.37
  REadj2, HACD1: 674.65
  REadj2, HMGCS1: 1170.64
  REadj2, LRP8: 125.76
  REadj2, MVD: 534.91
  REadj2, NCOR1: 68.44
  REadj2, NEU1: 722.33
  REadj2, NPC1: 154.34
  REadj2, PHLDB2: 66.17
  REadj2, PHYH: 813.79
  REadj2, PLA2G15: 82.36
  REadj2, PLA2G16: 222.24
  REadj2, PRKAB2: 21.07
  REadj2, PTGDS: 1080.74
  REadj2, SOAT1: 393.50
  REadj2, SPHK1: 195.74
  REadj2, SREBF1: 312.15
  REadj2, TXNRD1: 1483.80
  REadj2, VAC14: 105.84
Relative expression adjusted to detection limit (<20), Affymetrix probe set 11715561_s_at
  REadj2, SCD: 634.95
Relative expression adjusted to detection limit (<20), Affymetrix probe set 11715562_x_at
  REadj2, SCD: 722.36
Relative expression adjusted to detection limit (<20), Affymetrix probe set 11715563_s_at
  REadj2, SCD: 558.17
Relative expression adjusted to detection limit (<20), Affymetrix probe set 11716292_a_at
  REadj2, G6PD: 348.08
Relative expression adjusted to detection limit (<20), Affymetrix probe set 11716293_x_at
  REadj2, G6PD: 239.53
Relative expression adjusted to detection limit (<20), Affymetrix probe set 11716338_a_at
  REadj2, INSIG1: 1101.68
Relative expression adjusted to detection limit (<20), Affymetrix probe set 11716339_a_at
  REadj2, INSIG1: 1249.89
Relative expression adjusted to detection limit (<20), Affymetrix probe set 11716533_a_at
  REadj2, PPT1: 249.91
Relative expression adjusted to detection limit (<20), Affymetrix probe set 11717859_a_at
  REadj2, EBP: 1025.83
Relative expression adjusted to detection limit (<20), Affymetrix probe set 11720588_a_at
  REadj2, HSD17B14: 154.64
Relative expression adjusted to detection limit (<20), Affymetrix probe set 11721046_a_at
  REadj2, SERINC2: 462.86
Relative expression adjusted to detection limit (<20), Affymetrix probe set 11726265_at
  REadj2, ME1: 1130.68
Relative expression adjusted to detection limit (<20), Affymetrix probe set 11736285_a_at
  REadj2, CHKA: 137.49
Relative expression adjusted to detection limit (<20), Affymetrix probe set 11736286_a_at
  REadj2, CHKA: 138.86
Relative expression adjusted to detection limit (<20), Affymetrix probe set 11740582_a_at
  REadj2, ASAH1: 1292.95
Relative expression adjusted to detection limit (<20), Affymetrix probe set 11742107_a_at
  REadj2, PPT1: 289.70
Relative expression adjusted to detection limit (<20), Affymetrix probe set 11743547_a_at
  REadj2, ASAH1: 1038.22
Relative expression adjusted to detection limit (<20), Affymetrix probe set 11744044_s_at
  REadj2, PCYT2: 239.50
Relative expression adjusted to detection limit (<20), Affymetrix probe set 11745459_a_at
  REadj2, FADS1: 1891.83
Relative expression adjusted to detection limit (<20), Affymetrix probe set 11746974_a_at
  REadj2, LDLR: 357.86
Relative expression adjusted to detection limit (<20), Affymetrix probe set 11747322_s_at
  REadj2, PCYT2: 216.32
Relative expression adjusted to detection limit (<20), Affymetrix probe set 11748045_x_at
  REadj2, LDLR: 380.34
Relative expression adjusted to detection limit (<20), Affymetrix probe set 11748053_x_at
  REadj2, SERINC2: 342.33
Relative expression adjusted to detection limit (<20), Affymetrix probe set 11748279_s_at
  REadj2, TM7SF2: 91.54
Relative expression adjusted to detection limit (<20), Affymetrix probe set 11749332_x_at
  REadj2, EBP: 907.86
Relative expression adjusted to detection limit (<20), Affymetrix probe set 11749343_a_at
  REadj2, ABHD4: 66.31
Relative expression adjusted to detection limit (<20), Affymetrix probe set 11749376_a_at
  REadj2, ABHD4: 69.48
Relative expression adjusted to detection limit (<20), Affymetrix probe set 11750913_a_at
  REadj2, ME1: 861.69
Relative expression adjusted to detection limit (<20), Affymetrix probe set 11750975_x_at
  REadj2, GBA: 250.68
Relative expression adjusted to detection limit (<20), Affymetrix probe set 11751086_x_at
  REadj2, GBA: 255.53
Relative expression adjusted to detection limit (<20), Affymetrix probe set 11751337_a_at
  REadj2, DHCR24: 191.39
Relative expression adjusted to detection limit (<20), Affymetrix probe set 11751338_x_at
  REadj2, DHCR24: 364.97
Relative expression adjusted to detection limit (<20), Affymetrix probe set 11752486_a_at
  REadj2, G6PD: 224.35
Relative expression adjusted to detection limit (<20), Affymetrix probe set 11752670_a_at
  REadj2, FADS1: 3012.88
Relative expression adjusted to detection limit (<20), Affymetrix probe set 11753440_x_at
  REadj2, GBA: 139.49
Relative expression adjusted to detection limit (<20), Affymetrix probe set 11755251_x_at
  REadj2, FADS1: 1908.34
Relative expression adjusted to detection limit (<20), Affymetrix probe set 11757575_x_at
  REadj2, HSD17B14: 89.08
Relative expression adjusted to detection limit (<20), Affymetrix probe set 11762755_x_at
  REadj2, TM7SF2: 61.24

— US20220267380A1, “Glycopeptides Increasing Lipid Synthesis” (TFCHEM, priority 2019, published 2022)
